Patent US6825194B2, “Hexacyclic compounds” (Chugai Seiyaku Kabushiki Kaisha, priority 2001, dated 2004)
Read-outs that look alike come from different tables or passages of the source.

Columns and labels:
HCT116 = assay: Anti-proliferative activity assay, HCT116; format: cell-based, human; conditions: HCT116 colorectal cancer cells, 4 days, WST-8, read-out: Anti-proliferative activity assay (IC50 in nM) HCT116 (CRC)
Description: (§1) Antiproliferative activity assay was carried out as follows. A single suspension of tumor cells was inoculated to the serially diluted 96-well microtestplate. Then the testplate was incubated in the 5% CO2 ambience at 37° C. for 4 days (2-3×10^3 cells/well). The degree of cell growth in a monolayer was measured by using WST-8 (Dojindo, Japan). IC50 values of drugs against tumor cells were calculated as the concentration of drug yielding 50% OD of the control growth. The IC50 value measures the drug concentration for 50% of the growth of tumor cells in vitro as compared to the control.
(§2) The anti-tumor activities of hexacyclic compounds of the formula [1A] and [1B] against in vitro growth of human tumor cell lines, HCT116 and DLD-1 of colorectal cancer (CRC) and QG56 and NCI-H460 of non small cell lung cancer (NSCLC) are summarized in Table 1. These cell lines are commercially available via the American Type Culture Collection (ATTC).

DLD-1 = assay: Anti-proliferative activity assay, DLD-1; format: cell-based, human; conditions: DLD-1 colorectal cancer cells, 4 days, WST-8, read-out: Anti-proliferative activity assay (IC50 in nM) DLD-1 (CRC)
Description: as §1, §2

QG56 = assay: Anti-proliferative activity assay, QG56; format: cell-based, human; conditions: QG56 non small cell lung cancer cells, 4 days, WST-8, read-out: Anti-proliferative activity assay (IC50 in nM) QG56 (NSCLC)
Description: as §1, §2

NCI-H460 = assay: Anti-proliferative activity assay, NCI-H460; format: cell-based, human; conditions: NCI-H460 non small cell lung cancer cells, 4 days, WST-8, read-out: Anti-proliferative activity assay (IC50 in nM) NCI-H460 (NSCLC)
Description: as §1, §2

[1] = converted to the inactive carboxylate form; cited from earlier work

Structure (SMILES)	IC50 (HCT116; Homo sapiens, HCT-116, 96 h) [nM]	IC50 (DLD-1; Homo sapiens, 96 h) [nM]	IC50 (QG56; Homo sapiens, QG-56, 96 h) [nM]	IC50 (NCI-H460; Homo sapiens, 96 h) [nM]	IC50 (HCT116) [nM]	IC50 (DLD-1) [nM]	IC50 (QG56) [nM]	IC50 (NCI-H460) [nM]	half-life in plasma [1]
CC[C@@]1(O)C(=O)OCc2c1cc1n(c2=O)Cc2c-1nc1cccc3c1c2N(CCc1ccccc1)C(=O)N3 [Compound A, (9S)-9-ethyl-9-hydroxy-1-phenethyl-1H,12H-pyrano[3″,4″:6′,7′]indolizino[1′,2′:6,5]pyrido[4,3,2-de]quinazoline-2,10,13(3H,9H,15H)-trione]	1.9	11	7.1	6.5					
CCCCCN1C=Nc2cccc3nc4c(c1c23)Cn1c-4cc2c(c1=O)COC(=O)[C@]2(O)CC [Compound B, (9S)-9-ethyl-9-hydroxy-1-pentyl-1H,12H-pyrano[3″,4″:6′,7′]indolizino[1′,2′:6,5]pyrido[4,3,2-de]quinazoline-10,13(9H,15H)-dione]	6.1	23	7.7	7					
CC[C@@]1(O)C(=O)OCc2c1cc1n(c2=O)Cc2c-1nc1cccc3c1c2NC(=S)N3CCC(C)C [Compound D, (9S)-9-ethyl-9-hydroxy-1-(3-methylbutyl)-2(3H)-thioxo-1H,12H-pyrano[3″,4″:6′,7′]indolizino[1′,2′:6,5]pyrido[4,3,2-de]quinazoline-10,13(9H,15H)-dione]					5.1	15	17	10	
CCCCCN1C(C)=Nc2cccc3nc4c(c1c23)Cn1c-4cc2c(c1=O)COC(=O)[C@]2(O)CC [Compound E, (9S)-9-ethyl-9-hydroxy-2-methyl-1-pentyl-1H,12H-pyrano[3″,4″:6′,7′]indolizino[1′,2′:6,5]pyrido[4,3,2-de]quinazoline-10,13(9H,15H)-dione]	4.5	15	15	7.9					
CC[C@@]1(O)C(=O)OCc2c1cc1n(c2=O)Cc2c-1nc1cccc3c1c2N(CCC(C)C)C(CO)=N3 [Compound F, (9S)-9-ethyl-9-hydroxy-2-hydroxymethyl-1-(3-methylbutyl)-1H,12H-pyrano[3″,4″:6′,7′]indolizino[1′,2′:6,5]pyrido[4,3,2-de]quinazoline-10,13(9H,15H)-dione]	3.1	12	7.4	4.8					
CCc1c2c(nc3ccc(O)cc13)-c1cc3c(c(=O)n1C2)COC(=O)[C@]3(O)CC [SN-38, 7-ethyl-10-hydroxycamptothecin, reference compound]					6.9	53	27	21	
CC[C@@]1(O)C(=O)OCc2c1cc1n(c2=O)Cc2cc3ccccc3nc2-1 [camptothecin, 4(S)-ethyl-4-hydroxy-1H-pyrano[3′,4′:6,7]indolizino[1,2-b]quinoline-3,14(4H,12H)-dione]									less than 30 min
